# Assay results from patent US20230159509A1 (Amathus Therapeutics, Inc., priority 2020, published 2023).
# Target: T1, TRAP1 enzyme (Homo sapiens, UniProt Q12931)
# T1 construct: 150 nM Trap1 enzyme was incubated with various concentrations of the test compound
# T1 sequence (Q12931 60-704): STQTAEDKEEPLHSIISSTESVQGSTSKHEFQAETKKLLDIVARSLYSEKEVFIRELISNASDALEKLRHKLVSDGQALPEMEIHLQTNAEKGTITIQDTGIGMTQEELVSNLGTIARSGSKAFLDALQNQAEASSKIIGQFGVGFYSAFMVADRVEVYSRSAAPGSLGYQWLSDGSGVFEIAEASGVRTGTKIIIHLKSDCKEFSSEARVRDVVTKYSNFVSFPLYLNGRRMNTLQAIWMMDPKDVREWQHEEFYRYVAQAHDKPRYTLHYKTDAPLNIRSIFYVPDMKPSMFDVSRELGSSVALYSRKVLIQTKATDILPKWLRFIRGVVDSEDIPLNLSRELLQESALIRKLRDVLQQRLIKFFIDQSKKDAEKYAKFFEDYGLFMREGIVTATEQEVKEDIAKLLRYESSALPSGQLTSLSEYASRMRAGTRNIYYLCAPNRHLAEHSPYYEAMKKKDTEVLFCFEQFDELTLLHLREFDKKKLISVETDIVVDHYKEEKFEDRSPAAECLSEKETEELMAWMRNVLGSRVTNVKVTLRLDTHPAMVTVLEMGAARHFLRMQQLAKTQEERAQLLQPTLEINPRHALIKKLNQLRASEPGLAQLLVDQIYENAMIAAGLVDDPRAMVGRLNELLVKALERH
# Experiment: ADP Glo assay of TRAP1 ATPase activity
# Assay type: biochemical
# Settings: 1 h; compound concentration 50 μM; read-out: ADP-Glo Percent Activation at 50 μM
# Summary of the method: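 Compound (0.79–100 μM) was preincubated 30 min at 37° C with 150 nM TRAP1 in 25 mM Pipes pH 7.5, 40 mM KCl, 0.05 mM MgCl2. Reaction started with 20 μM ATP, 60 min at 37° C. ADP measured by luminescence against a standard curve; activation fitted sigmoidally for EC50 and Emax.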
row,Structure (SMILES),activation at 50 µM [%]
1,COc1ncc(NC(=O)c2ccc3c(c2)CC(=O)N3)cc1S(=O)(=O)Nc1c(C)cccc1C [compound 2523],181 to 352
2,COc1ncc(NC(=O)c2c(C)noc2C)cc1S(=O)(=O)Nc1c(C)cccc1C [compound 2524],151 to 180
3,COc1ncc(NC(=O)c2cccc3c2CCC(=O)N3)cc1S(=O)(=O)Nc1c(C)cccc1C [compound 2525],151 to 180
4,COc1ncc(NC(=O)c2ccn3cnnc3c2)cc1S(=O)(=O)Nc1c(C)cccc1C [compound 2526],120 to 150
5,COc1ncc(NC(=O)c2c3c(nn2C)CCC3)cc1S(=O)(=O)Nc1c(C)cccc1C [compound 2528],181 to 352
6,COc1ncc(NC(=O)c2ccc(C#N)cc2)cc1S(=O)(=O)Nc1c(C)cccc1C [compound 2529],181 to 352
7,COc1ncc(NC(=O)c2ccc(OC(F)(F)F)cc2)cc1S(=O)(=O)Nc1c(C)cccc1C [compound 2531],120 to 150
8,COc1ncc(NC(=O)c2ccc(N3CCCC3=O)cc2)cc1S(=O)(=O)Nc1c(C)cccc1C [compound 2532],151 to 180
9,COc1ncccc1C(=O)Nc1cnc(OC)c(S(=O)(=O)Nc2c(C)cccc2C)c1 [compound 2535],151 to 180
10,COc1ncc(NC(=O)c2cccc(C(F)(F)F)c2)cc1S(=O)(=O)Nc1c(C)cccc1C [compound 2536],151 to 180
11,COc1ncc(NC(=O)c2ccc3ncnn3c2)cc1S(=O)(=O)Nc1c(C)cccc1C [compound 2537],120 to 150
12,COc1ncc(NC(=O)c2cn(C(C)C)nn2)cc1S(=O)(=O)Nc1c(C)cccc1C [compound 2538],120 to 150
13,COc1ncc(NC(=O)c2cccn2C)cc1S(=O)(=O)Nc1c(C)cccc1C [compound 2539],181 to 352
14,COc1ncc(NC(=O)c2ccc3c(c2)nnn3C)cc1S(=O)(=O)Nc1c(C)cccc1C [compound 2541],120 to 150
15,COc1ncc(NC(=O)c2ccc(F)cc2)cc1S(=O)(=O)Nc1c(C)cccc1C [compound 2542],151 to 180
16,COc1ncc(NC(=O)c2cncc(N(C)C)n2)cc1S(=O)(=O)Nc1c(C)cccc1C [compound 2543],181 to 352
17,COc1ncc(NC(=O)c2ccc(N3CCCCC3)nc2)cc1S(=O)(=O)Nc1c(C)cccc1C [compound 2544],181 to 352
18,COc1cncc(C(=O)Nc2cnc(OC)c(S(=O)(=O)Nc3c(C)cccc3C)c2)c1 [compound 2545],151 to 180
19,COc1cnccc1C(=O)Nc1cnc(OC)c(S(=O)(=O)Nc2c(C)cccc2C)c1 [compound 2546],120 to 150
20,CCN1CCN(Cc2ccccc2C(=O)Nc2cnc(OC)c(S(=O)(=O)Nc3c(C)cccc3C)c2)CC1 [compound 2547],120 to 150
21,COc1ncc(NC(=O)c2ccccc2C)cc1S(=O)(=O)Nc1c(C)cccc1C [compound 2548],181 to 352
22,COc1cccnc1C(=O)Nc1cnc(OC)c(S(=O)(=O)Nc2c(C)cccc2C)c1 [compound 2549],120 to 150

row,Structure (SMILES),activation at 50 µM [%]
1,COc1ncc(NC(=O)c2ccccc2C(F)(F)F)cc1S(=O)(=O)Nc1c(C)cccc1C [compound 2550],151 to 180
2,COc1ncc(NC(=O)c2cn(C)nc2C(F)F)cc1S(=O)(=O)Nc1c(C)cccc1C [compound 2551],120 to 150
3,COc1ncc(NC(=O)c2cnn(C3CC3)c2)cc1S(=O)(=O)Nc1c(C)cccc1C [compound 2552],151 to 180
4,COc1ncc(NC(=O)c2ccnn2C(C)C)cc1S(=O)(=O)Nc1c(C)cccc1C [compound 2553],120 to 150
5,COc1ncc(NC(=O)c2ccc(N3CCOCC3)nc2)cc1S(=O)(=O)Nc1c(C)cccc1C [compound 2554],181 to 352
6,COc1ncc(NC(=O)c2cc(C(C)C)no2)cc1S(=O)(=O)Nc1c(C)cccc1C [compound 2555],181 to 352
7,COc1ccc(C(=O)Nc2cnc(OC)c(S(=O)(=O)Nc3c(C)cccc3C)c2)cn1 [compound 2556],151 to 180
8,COc1ncc(NC(=O)c2cnn3c2CCC3)cc1S(=O)(=O)Nc1c(C)cccc1C [compound 2557],151 to 180
9,COc1ncc(NC(=O)c2nc3ccccn3n2)cc1S(=O)(=O)Nc1c(C)cccc1C [compound 2558],151 to 180
10,COc1ncc(NC(=O)c2ccnn2C)cc1S(=O)(=O)Nc1c(C)cccc1C [compound 2559],120 to 150
11,COc1ncc(NC(=O)c2ccc(S(=O)(=O)NC(C)(C)C)cc2)cc1S(=O)(=O)Nc1c(C)cccc1C [compound 2561],181 to 352
12,COc1ncc(NC(=O)c2ccn(C3CC3)n2)cc1S(=O)(=O)Nc1c(C)cccc1C [compound 2562],181 to 352
13,COc1ncc(NC(=O)c2cc(C)n(C)n2)cc1S(=O)(=O)Nc1c(C)cccc1C [compound 2564],120 to 150
14,COc1ncc(NC(=O)c2ccccc2CN(C)C)cc1S(=O)(=O)Nc1c(C)cccc1C [compound 2566],120 to 150
15,COc1ncc(NC(=O)c2ccn3ncnc3c2)cc1S(=O)(=O)Nc1c(C)cccc1C [compound 2567],120 to 150
16,COc1ncc(NC(=O)c2ccc(OC3COC3)cc2)cc1S(=O)(=O)Nc1c(C)cccc1C [compound 2568],181 to 352
17,COc1ncc(NC(=O)c2cnsn2)cc1S(=O)(=O)Nc1c(C)cccc1C [compound 2569],120 to 150
18,COc1ncc(NC(=O)c2ccc(CN3CCOCC3)cc2)cc1S(=O)(=O)Nc1c(C)cccc1C [compound 2570],181 to 352
19,COc1ncc(NC(=O)c2ncn(C)c2C)cc1S(=O)(=O)Nc1c(C)cccc1C [compound 2571],151 to 180
20,COc1ncc(NC(=O)c2cccc(CN3CCOCC3)c2)cc1S(=O)(=O)Nc1c(C)cccc1C [compound 2572],181 to 352
21,COc1ncc(NC(=O)c2cc3n(n2)CCCC3)cc1S(=O)(=O)Nc1c(C)cccc1C [compound 2573],151 to 180
22,COc1ncc(NC(=O)c2cccc3c2CCCC3)cc1S(=O)(=O)Nc1c(C)cccc1C [compound 2574],151 to 180

row,Structure (SMILES),activation at 50 µM [%]
1,COc1cc(C(=O)Nc2cnc(OC)c(S(=O)(=O)Nc3c(C)cccc3C)c2)ccn1 [compound 2575],151 to 180
2,COc1ncc(NC(=O)c2ccc3c(c2)OCCN3C)cc1S(=O)(=O)Nc1c(C)cccc1C [compound 2576],181 to 352
3,COc1ncc(NC(=O)c2cnn3c2OCCC3)cc1S(=O)(=O)Nc1c(C)cccc1C [compound 2577],120 to 150
4,COc1ncc(NC(=O)c2ccc(N3CCN(C)CC3)cc2)cc1S(=O)(=O)Nc1c(C)cccc1C [compound 2578],181 to 352
5,COc1ncc(NC(=O)c2ccc(S(C)(=O)=O)cc2)cc1S(=O)(=O)Nc1c(C)cccc1C [compound 2580],120 to 150
6,COc1ncc(NC(=O)c2ccccc2[S@+](C)[O-])cc1S(=O)(=O)Nc1c(C)cccc1C [compound 2581],151 to 180
7,COc1ncc(NC(=O)c2c(C)nn(C)c2Cl)cc1S(=O)(=O)Nc1c(C)cccc1C [compound 2582],120 to 150
8,COc1cccc(C(=O)Nc2cnc(OC)c(S(=O)(=O)Nc3c(C)cccc3C)c2)n1 [compound 2583],181 to 352
9,COc1ncc(NC(=O)c2cccc(N3CCOCC3)n2)cc1S(=O)(=O)Nc1c(C)cccc1C [compound 2584],181 to 352
10,COc1ncc(NC(=O)c2ccn(C)n2)cc1S(=O)(=O)Nc1c(C)cccc1C [compound 2586],120 to 150
11,COc1ncc(NC(=O)c2cnn(C3CCOCC3)c2)cc1S(=O)(=O)Nc1c(C)cccc1C [compound 2587],120 to 150
12,COc1ncc(NC(=O)c2ccc(N3CCOCC3)cc2F)cc1S(=O)(=O)Nc1c(C)cccc1C [compound 2590],181 to 352
13,COc1ncc(NC(=O)c2cccc(CN3CCCC3)c2)cc1S(=O)(=O)Nc1c(C)cccc1C [compound 2591],151 to 180
14,COc1ncc(NC(=O)c2ccc(S(=O)(=O)N(C)C)cc2)cc1S(=O)(=O)Nc1c(C)cccc1C [compound 2593],151 to 180
15,COc1ncc(NC(=O)c2nc3c(s2)CN(C)CC3)cc1S(=O)(=O)Nc1c(C)cccc1C [compound 2594],151 to 180
16,COc1ncc(NC(=O)c2ccsn2)cc1S(=O)(=O)Nc1c(C)cccc1C [compound 2595],120 to 150
17,COc1ncc(NC(=O)c2ccc(C(C)=O)cc2)cc1S(=O)(=O)Nc1c(C)cccc1C [compound 2597],181 to 352
18,COc1ncc(NC(=O)c2cccc(CN3CCCCC3)c2)cc1S(=O)(=O)Nc1c(C)cccc1C [compound 2599],181 to 352
19,CCc1cc(C(=O)Nc2cnc(OC)c(S(=O)(=O)Nc3c(C)cccc3C)c2)n(C)n1 [compound 2600],151 to 180
20,COc1ncc(NC(=O)c2ccn(C(C)C)n2)cc1S(=O)(=O)Nc1c(C)cccc1C [compound 2601],181 to 352
